test system: BRD pathogens, M. haemolytica and P. multocida; assay: MIC screening panel of BRD pathogens (antibacterial / non-antibacterial); conditions: read-out: antibacterial / non-antibacterial (MIC for the BRD pathogens)

Q: CC[C@H]1OC(=O)[C@H](C)[C@@H](O[C@H]2C[C@@](C)(OC)[C@](O)(CN(CCN3CCOCC3)C(=O)NC3CC3)[C@H](C)O2)[C@H](C)[C@@H](O[C@@H]2O[C@H](C)C[C@H](N(C)C(=O)NC3CC3)[C@H]2O)[C@](C)(O)C[C@@H](C)CN[C@H](C)[C@@H](O)[C@]1(C)O [Example H-1, 3-cyclopropyl-1-((2S,3R,4S,6R)-2-(((2R,3S,4R,5R,8R,10R,11R,12S,13S,14R)-13-(((2R,4R,5S,6S)-5-((3-cyclopropyl-1-(2-morpholinoethyl)ureido)methyl)-5-hydroxy-4-methoxy-4,6-dimethyltetrahydro-2H-pyran-2-yl)oxy)-2-ethyl-3,4,10-trihydroxy-3,5,8,10,12,14-hexamethyl-15-oxo-1-oxa-6-azacyclopentadecan-11-yl)oxy)-3-hydroxy-6-methyltetrahydro-2H-pyran-4-yl)-1-methylurea] was tested. Which MIC did it give?
A: > 64 mg/L

Q: How did the MIC turn out when CC[C@H]1OC(=O)[C@H](C)[C@@H](O)[C@H](C)[C@@H](O[C@@H]2O[C@H](C)C[C@H](N(C)C(=O)Nc3ccc(C#N)cc3)[C@H]2O)[C@](C)(O)C[C@@H](C)CN[C@H](C)[C@@H](O)[C@]1(C)O [Example A-9, 3-(4-cyanophenyl)-1-((2S,3R,4S,6R)-2-(((2R,3S,4R,5R,8R,10R,11R,12S,13S,14R)-2-ethyl-3,4,10,13-tetrahydroxy-3,5,8,10,12,14-hexamethyl-15-oxo-1-oxa-6-azacyclopentadecan-11-yl)oxy)-3-hydroxy-6-methyltetrahydro-2H-pyran-4-yl)-1-methylurea] was run?
A: > 64 mg/L

Q: Which MIC does the source give for CC[C@H]1OC(=O)[C@H](C)[C@@H](O)[C@H](C)[C@@H](O[C@@H]2O[C@H](C)C[C@H](N(C)C(=O)Nc3cnn(C)c3)[C@H]2O)[C@](C)(O)C[C@@H](C)CN[C@H](C)[C@@H](O)[C@]1(C)O [Example A-6, 1-((2S,3R,4S,6R)-2-(((2R,3S,4R,5R,8R,10R,11R,12S,13S,14R)-2-ethyl-3,4,10,13-tetrahydroxy-3,5,8,10,12,14-hexamethyl-15-oxo-1-oxa-6-azacyclopentadecan-11-yl)oxy)-3-hydroxy-6-methyltetrahydro-2H-pyran-4-yl)-1-methyl-3-(1-methyl-1H-pyrazol-4-yl)urea] here?
A: > 64 mg/L

Q: For CCCNC(=O)N(C)[C@H]1C[C@@H](C)O[C@@H](O[C@@H]2[C@@H](C)[C@H](O[C@H]3C[C@@](C)(OC)[C@](O)(CNC4CC4)[C@H](C)O3)[C@@H](C)C(=O)O[C@H](CC)[C@@](C)(O)[C@H](O)[C@@H](C)NC[C@H](C)C[C@@]2(C)O)[C@@H]1O [Example H-93, 1-((2S,3R,4S,6R)-2-(((2R,3S,4R,5R,8R,10R,11R,12S,13S,14R)-13-(((2R,4R,5S,6S)-5-((cyclopropylamino)methyl)-5-hydroxy-4-methoxy-4,6-dimethyltetrahydro-2H-pyran-2-yl)oxy)-2-ethyl-3,4,10-trihydroxy-3,5,8,10,12,14-hexamethyl-15-oxo-1-oxa-6-azacyclopentadecan-11-yl)oxy)-3-hydroxy-6-methyltetrahydro-2H-pyran-4-yl)-1-methyl-3-propylurea], which MIC is on record?
A: > 64 mg/L

Q: How did the MIC turn out when CC[C@H]1OC(=O)[C@H](C)[C@@H](O)[C@H](C)[C@@H](O[C@@H]2O[C@H](C)C[C@H](N(C)C(=O)Nc3ccccc3C(F)(F)F)[C@H]2O)[C@](C)(O)C[C@@H](C)CN[C@H](C)[C@@H](O)[C@]1(C)O [Example A-16, 1-((2S,3R,4S,6R)-2-(((2R,3S,4R,5R,8R,10R,11R,12S,13S,14R)-2-ethyl-3,4,10,13-tetrahydroxy-3,5,8,10,12,14-hexamethyl-15-oxo-1-oxa-6-azacyclopentadecan-11-yl)oxy)-3-hydroxy-6-methyltetrahydro-2H-pyran-4-yl)-1-methyl-3-(2-(trifluoromethyl)phenyl)urea] was run?
A: > 64 mg/L

Q: Which MIC does the source give for CCCNC(=O)N(C)[C@H]1C[C@@H](C)O[C@@H](O[C@@H]2[C@@H](C)[C@H](O[C@H]3C[C@@](C)(OC)[C@](O)(CNC4CCC4)[C@H](C)O3)[C@@H](C)C(=O)O[C@H](CC)[C@@](C)(O)[C@H](O)[C@@H](C)NC[C@H](C)C[C@@]2(C)O)[C@@H]1O [Example H-94, 1-((2S,3R,4S,6R)-2-(((2R,3S,4R,5R,8R,10R,11R,12S,13S,14R)-13-(((2R,4R,5S,6S)-5-((cyclobutylamino)methyl)-5-hydroxy-4-methoxy-4,6-dimethyltetrahydro-2H-pyran-2-yl)oxy)-2-ethyl-3,4,10-trihydroxy-3,5,8,10,12,14-hexamethyl-15-oxo-1-oxa-6-azacyclopentadecan-11-yl)oxy)-3-hydroxy-6-methyltetrahydro-2H-pyran-4-yl)-1-methyl-3-propylurea] here?
A: > 64 mg/L

Q: For CCCN1C[C@H](C)C[C@@](C)(O)[C@H](O[C@@H]2O[C@H](C)C[C@H](N(C)C(=O)N(C)c3ccccc3)[C@H]2O)[C@@H](C)[C@H](O[C@H]2C[C@@](C)(OC)[C@@H](O)[C@H](C)O2)[C@@H](C)C(=O)O[C@H](CC)[C@@](C)(O)[C@H](O)[C@H]1C [Example B-15, 1-((2S,3R,4S,6R)-2-(((2R,3S,4R,5R,8R,10R,11R,12S,13S,14R)-2-ethyl-3,4,10-trihydroxy-13-(((2R,4R,5S,6S)-5-hydroxy-4-methoxy-4,6-dimethyltetrahydro-2H-pyran-2-yl)oxy)-3,5,8,10,12,14-hexamethyl-15-oxo-6-propyl-1-oxa-6-azacyclopentadecan-11-yl)oxy)-3-hydroxy-6-methyltetrahydro-2H-pyran-4-yl)-1,3-dimethyl-3-phenylurea], which MIC is on record?
A: > 64 mg/L

Q: For CC[C@H]1OC(=O)[C@H](C)[C@@H](O)[C@H](C)[C@@H](O[C@@H]2O[C@H](C)C[C@H](N(C)C(=O)Nc3ccccc3Cl)[C@H]2O)[C@](C)(O)C[C@@H](C)CN[C@H](C)[C@@H](O)[C@]1(C)O [Example A-12, 3-(2-chlorophenyl)-1-((2S,3R,4S,6R)-2-(((2R,3S,4R,5R,8R,10R,11R,12S,13S,14R)-2-ethyl-3,4,10,13-tetrahydroxy-3,5,8,10,12,14-hexamethyl-15-oxo-1-oxa-6-azacyclopentadecan-11-yl)oxy)-3-hydroxy-6-methyltetrahydro-2H-pyran-4-yl)-1-methylurea], which MIC is on record?
A: > 64 mg/L

Q: How did the MIC turn out when CCCNC[C@]1(O)[C@H](C)O[C@@H](O[C@H]2[C@H](C)[C@@H](O[C@@H]3O[C@H](C)C[C@H](N(C)C(=O)Nc4ccccc4F)[C@H]3O)[C@](C)(O)C[C@@H](C)CN[C@H](C)[C@@H](O)[C@](C)(O)[C@@H](CC)OC(=O)[C@@H]2C)C[C@@]1(C)OC [Example H-82, 1-((2S,3R,4S,6R)-2-(((2R,3S,4R,5R,8R,10R,11R,12S,13S,14R)-2-ethyl-3,4,10-trihydroxy-13-(((2R,4R,5S,6S)-5-hydroxy-4-methoxy-4,6-dimethyl-5-((propylamino)methyl)tetrahydro-2H-pyran-2-yl)oxy)-3,5,8,10,12,14-hexamethyl-15-oxo-1-oxa-6-azacyclopentadecan-11-yl)oxy)-3-hydroxy-6-methyltetrahydro-2H-pyran-4-yl)-3-(2-fluorophenyl)-1-methylurea] was run?
A: > 64 mg/L

Q: With CCCN(C[C@]1(O)[C@H](C)O[C@@H](O[C@H]2[C@H](C)[C@@H](O[C@@H]3O[C@H](C)C[C@H](N(C)C(=O)Nc4ccc(C(F)(F)F)cc4)[C@H]3O)[C@](C)(O)C[C@@H](C)CN[C@H](C)[C@@H](O)[C@](C)(O)[C@@H](CC)OC(=O)[C@@H]2C)C[C@@]1(C)OC)C(=O)Nc1ccc(C(F)(F)F)cc1 [Example H-12, 1-((2S,3R,4S,6R)-2-(((2R,3S,4R,5R,8R,10R,11R,12S,13S,14R)-2-ethyl-3,4,10-trihydroxy-13-(((2R,4R,5S,6S)-5-hydroxy-4-methoxy-4,6-dimethyl-5-((1-propyl-3-(4-(trifluoromethyl)phenyl)ureido)methyl)tetrahydro-2H-pyran-2-yl)oxy)-3,5,8,10,12,14-hexamethyl-15-oxo-1-oxa-6-azacyclopentadecan-11-yl)oxy)-3-hydroxy-6-methyltetrahydro-2H-pyran-4-yl)-1-methyl-3-(4-(trifluoromethyl)phenyl)urea] as the molecule, how does the MIC read?
A: > 64 mg/L

Q: For CCCN1C[C@H](C)C[C@@](C)(O)[C@H](O[C@@H]2O[C@H](C)C[C@H](N(C)C(=O)N(C)c3ccc(C(F)(F)F)cc3)[C@H]2O)[C@@H](C)[C@H](O[C@H]2C[C@@](C)(OC)[C@@H](O)[C@H](C)O2)[C@@H](C)C(=O)O[C@H](CC)[C@@](C)(O)[C@H](O)[C@H]1C [Example B-14, 1-((2S,3R,4S,6R)-2-(((2R,3S,4R,5R,8R,10R,11R,12S,13S,14R)-2-ethyl-3,4,10-trihydroxy-13-(((2R,4R,5S,6S)-5-hydroxy-4-methoxy-4,6-dimethyltetrahydro-2H-pyran-2-yl)oxy)-3,5,8,10,12,14-hexamethyl-15-oxo-6-propyl-1-oxa-6-azacyclopentadecan-11-yl)oxy)-3-hydroxy-6-methyltetrahydro-2H-pyran-4-yl)-1,3-dimethyl-3-(4-(trifluoromethyl)phenyl)urea], which MIC is on record?
A: > 64 mg/L

Q: CC[C@H]1OC(=O)[C@H](C)[C@@H](O)[C@H](C)[C@@H](O[C@@H]2O[C@H](C)C[C@H](N(C)C(=O)N(C)c3ccccc3)[C@H]2O)[C@](C)(O)C[C@@H](C)CN[C@H](C)[C@@H](O)[C@]1(C)O [Example A-26, 1-((2S,3R,4S,6R)-2-(((2R,3S,4R,5R,8R,10R,11R,12S,13S,14R)-2-ethyl-3,4,10,13-tetrahydroxy-3,5,8,10,12,14-hexamethyl-15-oxo-1-oxa-6-azacyclopentadecan-11-yl)oxy)-3-hydroxy-6-methyltetrahydro-2H-pyran-4-yl)-1,3-dimethyl-3-phenylurea] was tested. Which MIC did it give?
A: > 64 mg/L

Q: With CCCNC[C@]1(O)[C@H](C)O[C@@H](O[C@H]2[C@H](C)[C@@H](O[C@@H]3O[C@H](C)C[C@H](N(C)C(=O)Nc4ccccc4Cl)[C@H]3O)[C@](C)(O)C[C@@H](C)CN[C@H](C)[C@@H](O)[C@](C)(O)[C@@H](CC)OC(=O)[C@@H]2C)C[C@@]1(C)OC [Example H-80, 3-(2-chlorophenyl)-1-((2S,3R,4S,6R)-2-(((2R,3S,4R,5R,8R,10R,11R,12S,13S,14R)-2-ethyl-3,4,10-trihydroxy-13-(((2R,4R,5S,6S)-5-hydroxy-4-methoxy-4,6-dimethyl-5-((propylamino)methyl)tetrahydro-2H-pyran-2-yl)oxy)-3,5,8,10,12,14-hexamethyl-15-oxo-1-oxa-6-azacyclopentadecan-11-yl)oxy)-3-hydroxy-6-methyltetrahydro-2H-pyran-4-yl)-1-methylurea] as the molecule, how does the MIC read?
A: > 64 mg/L
